These results are taken from PubChem BioAssay AID2060901 (Molecular Pharmacology Branch, DTP, NCI, 2025).

The experiment concerns 422866-222-R5-J1-PDC complex spheroids viability. Nature of the experiment: Anticancer human tumor 422866-222-R5-J1-PDC patient-derived pancreatic adenocarcinoma cell line growth inhibition [RAS]. Conditions: for viability, T/C: stronger effect = lower value. The gist of the method: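 Tumour cells grown as complex spheroids with HUVEC endothelial cells and mesenchymal stem cells, treated with RAS pathway inhibitor combinations. Each agent spans half-log steps from near clinical Cmax, or 10 microM where Cmax is unknown.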

Setting [1] is: curve of first compound, second compound 0.0316 µM.
Setting [2] is: curve of first compound, second compound 0.1 µM.
Where [3] appears, read: curve of first compound, second compound 0.316 µM.
Where [4] appears, read: curve of first compound, second compound 1 µM.
The mark [5] stands for this setting: curve of first compound, second compound 3.16 µM.
Where [6] appears, read: curve of first compound, second compound 10 µM.
Where [7] appears, read: second compound 0.0316 µM, first compound 0.0316 µM.
Setting [8] is: second compound 0.0316 µM, first compound 0.1 µM.
The mark [9] stands for this setting: second compound 0.0316 µM, first compound 0.316 µM.
[10] abbreviates: second compound 0.0316 µM, first compound 1 µM.
The mark [11] stands for this setting: second compound 0.0316 µM, first compound 3.16 µM.
Setting [12] is: second compound 0.0316 µM, first compound 10 µM.
[13] abbreviates: second compound 0.1 µM, first compound 0.0316 µM.
[14] abbreviates: second compound 0.1 µM, first compound 0.1 µM.
[15] abbreviates: second compound 0.1 µM, first compound 0.316 µM.
The mark [16] stands for this setting: second compound 0.1 µM, first compound 1 µM.
[17] abbreviates: second compound 0.1 µM, first compound 3.16 µM.
The mark [18] stands for this setting: second compound 0.1 µM, first compound 10 µM.
[19] abbreviates: second compound 0.316 µM, first compound 0.0316 µM.
[20] abbreviates: second compound 0.316 µM, first compound 0.1 µM.
Where [21] appears, read: second compound 0.316 µM, first compound 0.316 µM.
Where [22] appears, read: second compound 0.316 µM, first compound 1 µM.
Where [23] appears, read: second compound 0.316 µM, first compound 3.16 µM.
[24] abbreviates: second compound 0.316 µM, first compound 10 µM.
[25] abbreviates: second compound 1 µM, first compound 0.0316 µM.
The mark [26] stands for this setting: second compound 1 µM, first compound 0.1 µM.
Setting [27] is: second compound 1 µM, first compound 0.316 µM.
The mark [28] stands for this setting: second compound 1 µM, first compound 1 µM.
[29] abbreviates: second compound 1 µM, first compound 3.16 µM.
Where [30] appears, read: second compound 1 µM, first compound 10 µM.
[31] abbreviates: second compound 3.16 µM, first compound 0.0316 µM.
Setting [32] is: second compound 3.16 µM, first compound 0.1 µM.
[33] abbreviates: second compound 3.16 µM, first compound 0.316 µM.
Where [34] appears, read: second compound 3.16 µM, first compound 1 µM.
[35] abbreviates: second compound 3.16 µM, first compound 3.16 µM.
Setting [36] is: second compound 3.16 µM, first compound 10 µM.
[37] abbreviates: second compound 10 µM, first compound 0.0316 µM.
Where [38] appears, read: second compound 10 µM, first compound 0.1 µM.
Where [39] appears, read: second compound 10 µM, first compound 0.316 µM.
[40] abbreviates: second compound 10 µM, first compound 1 µM.
[41] abbreviates: second compound 10 µM, first compound 3.16 µM.
Setting [42] is: second compound 10 µM, first compound 10 µM.
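Also: spheroids exposed to compounds for 7 days.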
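For viability, T/C in this document: 100% = DMSO vehicle control viability.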

One may read the IC50 as the concentration that inhibits the measured activity by half. What is called viability, T/C is the ratio of treated to control. As for `CC(=O)OC12COC1CC(O)C1(C)C(=O)C(O)C3=C(C)C(OC(=O)C(O)C(NC(=O)OC(C)(C)C)c4ccccc4)CC(O)(C(OC(=O)c4ccccc4)C21)C3(C)C` (stereo not drawn) + C#Cc1c(F)ccc2cc(O)cc(-c3ncc4c(N5CC6CCC(C5)N6)nc(OCC56CCCN5CC(F)C6)nc4c3F)c12, the 50% inhibitory concentration (IC50) by setting is: under setting [1], above 10000 nM; under setting [2], above 10000 nM; under setting [3], 31.6 nM; under setting [4], below 31.6 nM; under setting [5], below 31.6 nM; under setting [6], below 31.6 nM. The viability, T/C reads like this: under setting [7], 55.1%; under setting [8], 74.1%; under setting [9], 77%; under setting [10], 83.1%; under setting [11], 76.5%; under setting [12], 69.7%. Moreover, the viability, T/C under setting [13] was 70.7%; the viability, T/C under setting [14] was 61.3%; the viability, T/C under setting [15] is 56.5%; the viability, T/C under setting [16] is 65.5%; the viability, T/C under setting [17] was 64.1%; the viability, T/C under setting [18] was 61.7%. In addition, the viability, T/C reads like this: under setting [19], 55.7%; under setting [20], 48.2%; under setting [21], 46.6%; under setting [22], 56.8%; under setting [23], 67.4%; under setting [24], 55.1%. The viability, T/C under setting [25] was 34%; the viability, T/C under setting [26] was 33.1%; the viability, T/C under setting [27] was 37.5%; the viability, T/C under setting [28] was 36.5%; the viability, T/C under setting [29] is 41%; the viability, T/C under setting [30] was 35.4%. Further, the viability, T/C is 21.2% under setting [31]; 27.4% under setting [32]; 29.6% under setting [33]; 29.6% under setting [34]; 32% under setting [35]; 29.5% under setting [36]. The viability, T/C under setting [37] is 23.1%; the viability, T/C under setting [38] was 22.2%; the viability, T/C under setting [39] was 22.2%; the viability, T/C under setting [40] was 20.9%; the viability, T/C under setting [41] is 24.1%; the viability, T/C under setting [42] is 22.9%.
Consider `CC(C)NCC(C(=O)N1CCN(c2ncnc3c2C(C)CC3O)CC1)c1ccc(Cl)cc1` (stereo not drawn) + C#Cc1c(F)ccc2cc(O)cc(-c3ncc4c(N5CC6CCC(C5)N6)nc(OCC56CCCN5CC(F)C6)nc4c3F)c12, for which the IC50 reads like this: under setting [1], above 10000 nM; under setting [2], above 10000 nM; under setting [3], above 10000 nM; under setting [4], below 31.6 nM; under setting [5], below 31.6 nM; under setting [6], below 31.6 nM. Moreover, the viability, T/C under setting [7] is 87.4%; the viability, T/C under setting [8] is 79%; the viability, T/C under setting [9] is 88%; the viability, T/C under setting [10] is 100%; the viability, T/C under setting [11] is 103%; the viability, T/C under setting [12] is 121%. Further, the viability, T/C runs as follows: under setting [13], 86.9%; under setting [14], 64.4%; under setting [15], 78.3%; under setting [16], 74.7%; under setting [17], 94.2%; under setting [18], 109%. Besides, the viability, T/C was 60.3% under setting [19]; 46.1% under setting [20]; 58.5% under setting [21]; 69.9% under setting [22]; 81.8% under setting [23]; 85.2% under setting [24]. Also, the viability, T/C reads like this: under setting [25], 39.9%; under setting [26], 35.3%; under setting [27], 38.9%; under setting [28], 48.6%; under setting [29], 66.5%; under setting [30], 58.9%. For the same molecule, the viability, T/C was 25.6% under setting [31]; 24.3% under setting [32]; 19.6% under setting [33]; 29.4% under setting [34]; 38.4% under setting [35]; 40.9% under setting [36]. The viability, T/C under setting [37] is 17.3%; the viability, T/C under setting [38] was 19%; the viability, T/C under setting [39] is 14.6%; the viability, T/C under setting [40] is 12%; the viability, T/C under setting [41] is 18.8%; the viability, T/C under setting [42] was 18.8%.
Turning to `O=C(c1ccc(F)c(F)c1Nc1ccc(I)cc1F)N1CC(O)([C@@H]2CCCCN2)C1`, the viability, T/C (compound 0.00316 µM) is 98.2% [middle of 4 runs]; the viability, T/C (compound 0.01 µM) was 74.8% [middle of 4 runs]; the viability, T/C (compound 0.0316 µM) is 60.7% [middle of 4 runs]; the viability, T/C (compound 0.1 µM) was 57% [middle of 4 runs]; the viability, T/C (compound 0.316 µM) was 45.2% [middle of 4 runs]; the viability, T/C (compound 1 µM) was 39.2% [middle of 4 runs].
`CCn1c(-c2cc(N3CCN(C)CC3)cnc2C(C)OC)c2c3cc(ccc31)-c1csc(n1)CC(NC(=O)C1CC1C)C(=O)N1CCCC(N1)C(=O)OCC(C)(C)C2` (stereo not drawn): the viability, T/C (compound 0.000949 µM) is 29.7% [middle of 8 runs]; the viability, T/C (compound 0.003 µM) is 22.6% [middle of 8 runs]; the viability, T/C (compound 0.00949 µM) was 19.6% [middle of 8 runs]; the viability, T/C (compound 0.03 µM) is 20.2% [middle of 8 runs]; the viability, T/C (compound 0.0949 µM) is 23% [middle of 8 runs]; the viability, T/C (compound 0.3 µM) was 21.7% [middle of 8 runs]. Moreover, the 50% inhibitory concentration (IC50) (compound alone, run of 05/20/2024) was below 0.949 nM.
For `CC(C)n1nc(-c2ccc3oc(N)nc3c2)c2c(N)ncnc21`, the viability, T/C is 103% [middle of 4 runs] (compound 0.000316 µM), 82.4% [middle of 4 runs] (compound 0.001 µM) and 94% [middle of 4 runs] (compound 0.01 µM). Also, where the note is “curve of compound”, the IC50 is above 100 nM.
As for `CC(Nc1ccc2c(c1)OCCn1cc(N3C(=O)OCC3C(F)F)nc1-2)C(N)=O` (stereo not drawn) + C#Cc1c(F)ccc2cc(O)cc(-c3ncc4c(N5CC6CCC(C5)N6)nc(OCC56CCCN5CC(F)C6)nc4c3F)c12, the half-maximal inhibitory concentration (IC50) under setting [1] amounted to 93.5 nM; the IC50 under setting [2] was 81.5 nM; the half-inhibitory concentration (IC50) under setting [3] is 33.4 nM; the half-maximal inhibitory concentration (IC50) under setting [4] was below 31.6 nM; the IC50 under setting [5] was below 31.6 nM; the IC50 under setting [6] was below 31.6 nM. The viability, T/C under setting [7] was 77%; the viability, T/C under setting [8] is 46.7%; the viability, T/C under setting [9] is 33.1%; the viability, T/C under setting [10] was 37.9%; the viability, T/C under setting [11] is 26.1%; the viability, T/C under setting [12] was 22.2%. Moreover, the viability, T/C under setting [13] is 73.3%; the viability, T/C under setting [14] was 44.8%; the viability, T/C under setting [15] was 30.9%; the viability, T/C under setting [16] was 24.7%; the viability, T/C under setting [17] was 23%; the viability, T/C under setting [18] was 19.9%. In addition, the viability, T/C reads like this: under setting [19], 50.6%; under setting [20], 38.6%; under setting [21], 29.8%; under setting [22], 21.6%; under setting [23], 19%; under setting [24], 18.7%. The viability, T/C under setting [25] was 37.3%; the viability, T/C under setting [26] is 26.5%; the viability, T/C under setting [27] was 22.5%; the viability, T/C under setting [28] is 14.5%; the viability, T/C under setting [29] is 13.6%; the viability, T/C under setting [30] was 12.7%. In addition, the viability, T/C by setting is: under setting [31], 22.2%; under setting [32], 19.2%; under setting [33], 13%; under setting [34], 10.5%; under setting [35], 9.41%; under setting [36], 9.38%. Besides, the viability, T/C under setting [37] is 13.7%; the viability, T/C under setting [38] is 11.8%; the viability, T/C under setting [39] is 8.74%; the viability, T/C under setting [40] is 6.04%; the viability, T/C under setting [41] was 7.1%; the viability, T/C under setting [42] was 7.04%.
